According to ChEMBL document CHEMBL1201862, “PubChem BioAssay data set” (2004):
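48-hour exposure; five concentrations; linearly interpolated endpoints. GI50 marks 50% less growth.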 Active and inactive are the calls of the source. Rule as the data show it: active = GI50 up to about 1.1 µM and inactive = higher.

Experiments:
Experiment in all cases: DTP human tumour cell line panel, 48 h
[1] = system: 786-0
[2] = system: ACHN
[3] = system: CAKI-1
[4] = system: COLO 205
[5] = system: DLD-1
[6] = system: HCT-116
[7] = system: HL-60
[8] = system: HOP-62
[9] = system: HOP-92
[10] = system: M14
[11] = system: NCI-H460
[12] = system: NCI-H522
[13] = system: OVCAR-5
[14] = system: SK-MEL-28
[15] = system: SK-MEL-2
[16] = system: SK-OV-3
[17] = system: SW-620
[18] = system: TK-10
[19] = system: MDA-MB-435
[20] = system: PC-3

Measured: GI50

O=C(CC(O)(c1ccccc1)c1ccc(Cl)cc1)NC(=O)c1ccccc1O (stereo not given)
inactive: [1] 10.5 µM | [2] 4.49 µM | [3] 3.95 µM | [4] 14.4 µM | [5] 11.8 µM | [6] 11.7 µM | [7] 4.6 µM | [8] 6.52 µM | [9] 2.13 µM | [10] 12.4 µM | [11] 4.37 µM | [12] 3.16 µM | [13] 1.99 µM | [14] 19.8 µM | [15] 5.3 µM | [16] 17.1 µM | [17] 18.7 µM | [18] 13.2 µM

CC12C3CC4C5CC(C(C53)[C@@H]1NCc1ccccc1)C42 (stereo not given in full)
inactive: [1] > 100 µM | [2] > 100 µM | [3] 79.8 µM | [4] 18.5 µM | [5] > 100 µM | [6] > 100 µM | [7] > 100 µM | [8] > 100 µM | [9] 55.7 µM | [10] > 100 µM | [11] > 100 µM | [12] 36.2 µM | [13] 86.9 µM | [14] > 100 µM | [15] > 100 µM | [16] > 100 µM | [17] > 100 µM | [18] > 100 µM

CCCCCCCCOCC(O)CO (stereo not given)
inactive: [1] > 100 µM | [2] > 100 µM | [3] > 100 µM | [4] > 100 µM | [5] > 100 µM | [6] > 100 µM | [7] > 100 µM | [8] > 100 µM | [9] 41.8 µM | [10] > 100 µM | [11] > 100 µM | [12] 28 µM | [13] > 100 µM | [14] > 100 µM | [15] > 100 µM | [16] > 100 µM | [17] > 100 µM | [18] > 100 µM

CC(=O)Oc1cccc2c1C(=O)C(Br)(Br)CCC2
inactive: [1] 5.32 µM | [2] 6.38 µM | [3] 6.62 µM | [4] 6.52 µM | [5] 10.1 µM | [6] 3.26 µM | [7] 2.38 µM | [8] 14.4 µM | [9] 2.93 µM | [10] 2.51 µM | [19] 3.56 µM | [11] 17.3 µM | [12] 1.87 µM | [13] 7.6 µM | [20] 3.96 µM | [14] 10.5 µM | [15] 9.23 µM | [16] 10.1 µM | [17] 2.81 µM | [18] 16.9 µM

COc1cc2cnc3c4cc(OC)c(OC(C)C)cc4ccc3c2cc1OC
inactive: [1] > 100 µM | [2] > 100 µM | [3] > 100 µM | [4] > 100 µM | [5] > 100 µM | [6] > 100 µM | [7] > 100 µM | [8] > 100 µM | [9] > 100 µM | [10] > 100 µM | [11] > 100 µM | [12] > 100 µM | [13] > 100 µM | [14] > 100 µM | [15] > 100 µM | [16] > 100 µM | [17] > 100 µM | [18] > 100 µM

CN(C)CCC1(C2=CCCC2)CC/C(=C\c2ccc(Cl)cc2)C1=O (stereo not given)
inactive: [1] 4.04 µM | [2] 11.5 µM | [3] 7.03 µM | [4] 12.4 µM | [5] 7.29 µM | [6] 8.77 µM | [7] 1.6 µM | [8] 16.9 µM | [9] 3.89 µM | [10] 2.01 µM | [11] 10.9 µM | [12] 6.68 µM | [13] 12.9 µM | [14] 2.49 µM | [15] 4.45 µM | [16] 6.93 µM | [17] 9.4 µM | [18] 11.1 µM
